# Tests used:
# Assay type in all cases: in vivo
# Settings in all cases: treatment dosage 320 g/ha
# corn [1] = experiment: Test Example 3: soil treatment, effect on crop; c: corn
# Method in brief: (§1)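 Crop and weed responses were judged three weeks after a uniform surface spray of the water-diluted emulsion at the given g/ha rate. Seeds sat beneath about 1.5 cm of sterilized diluvial soil, and boxes stood in a greenhouse at 25 to 30° C.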
# transplanted rice = experiment: Test Example 1: preemergent weed treatment in the submerged state, effect on crop; a: transplanted rice
# Method in brief: (§2)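 Alluvial soil in Wagner pots flooded to 4 cm; barnyard grass, bulrush and oval-leafed pondweed seeds sown, then 2.5-leaf rice seedlings transplanted. Same day, emulsified compound diluted in water to set g/ha dosages and applied to water surface; greenhouse 25–30 °C, effect scored by criteria after 3 weeks.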
# chickweed [2] = experiment: Test Example 4: weedkilling efficacy by foliar treatment; N: chickweed
# Method in brief: (§3)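 Seeds are spot-sown into sterilized diluvial soil and covered with about 1.5 cm of soil. After 14 days' greenhouse growth at 25 to 30° C, plants are sprayed on stems and leaves with diluted emulsion at the stated g/ha rate, then scored at 3 weeks.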
# rapeseed [3] = experiment: Test Example 4: foliar treatment, effect on crop; g: rapeseed
# Method in brief: as §3
# directly sown rice [4] = experiment: Test Example 4: foliar treatment, effect on crop; b: directly sown rice
# Method in brief: as §3
# bulrush [5] = experiment: Test Example 1: weedkilling efficacy, preemergent weed treatment in the submerged state; B: bulrush
# Method in brief: as §2
# wheat [6] = experiment: Test Example 3: soil treatment, effect on crop; e: wheat
# Method in brief: as §1
# catchweed [7] = experiment: Test Example 4: weedkilling efficacy by foliar treatment; O: catchweed
# Method in brief: as §3
# wild oat [8] = experiment: Test Example 3: weedkilling efficacy through soil treatment; G: wild oat
# Method in brief: as §1
# fig-leafed goosefoot = experiment: Test Example 4: weedkilling efficacy by foliar treatment; M: fig-leafed goosefoot
# Method in brief: as §3
# green foxtail [9] = experiment: Test Example 3: weedkilling efficacy through soil treatment; E: green foxtail
# Method in brief: as §1
# birds-eye speedwell [10] = experiment: Test Example 3: weedkilling efficacy through soil treatment; p: birds-eye speedwell
# Method in brief: as §1
# crabgrass [11] = experiment: Test Example 4: weedkilling efficacy by foliar treatment; D: crabgrass
# Method in brief: as §3
# Italian ryegrass [12] = experiment: Test Example 4: weedkilling efficacy by foliar treatment; I: Italian ryegrass
# Method in brief: as §3
# black-grass [13] = experiment: Test Example 4: weedkilling efficacy by foliar treatment; H: black-grass
# Method in brief: as §3
# common wind-grass [14] = experiment: Test Example 4: weedkilling efficacy by foliar treatment; J: common wind-grass
# Method in brief: as §3
# barnyard grass [15] = experiment: Test Example 3: weedkilling efficacy through soil treatment; F: barnyard grass
# Method in brief: as §1
# chickweed [16] = experiment: Test Example 3: weedkilling efficacy through soil treatment; N: chickweed
# Method in brief: as §1
# common wind-grass [17] = experiment: Test Example 3: weedkilling efficacy through soil treatment; J: common wind-grass
# Method in brief: as §1
# soybean [18] = experiment: Test Example 3: soil treatment, effect on crop; d: soybean
# Method in brief: as §1
# green foxtail [19] = experiment: Test Example 4: weedkilling efficacy by foliar treatment; E: green foxtail
# Method in brief: as §3
# wheat [20] = experiment: Test Example 4: foliar treatment, effect on crop; e: wheat
# Method in brief: as §3
# birds-eye speedwell [21] = experiment: Test Example 4: weedkilling efficacy by foliar treatment; p: birds-eye speedwell
# Method in brief: as §3
# barnyard grass [22] = experiment: Test Example 2: weedkilling efficacy, growth period weed treatment in the submerged state; A: barnyard grass
# Method in brief: (§4)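 First, alluvial soil in pots is flooded to 4 cm and mixed seed is sown. Next, plants grow in a greenhouse at 25 to 30° C until the 1-2 leaf stage. Then diluted emulsion is applied onto the water surface at the given g/ha rate, and injury is assessed after 3 weeks.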
# barnyard grass [23] = experiment: Test Example 1: weedkilling efficacy, preemergent weed treatment in the submerged state; A: barnyard grass
# Method in brief: as §2
# beet [24] = experiment: Test Example 4: foliar treatment, effect on crop; f: beet
# Method in brief: as §3
# directly sown rice [25] = experiment: Test Example 3: soil treatment, effect on crop; b: directly sown rice
# Method in brief: as §1
# redroot pigweed [26] = experiment: Test Example 3: weedkilling efficacy through soil treatment; L: redroot pigweed
# Method in brief: as §1
# Indian mallow [27] = experiment: Test Example 4: weedkilling efficacy by foliar treatment; K: Indian mallow
# Method in brief: as §3
# Italian ryegrass [28] = experiment: Test Example 3: weedkilling efficacy through soil treatment; I: Italian ryegrass
# Method in brief: as §1
# beet [29] = experiment: Test Example 3: soil treatment, effect on crop; f: beet
# Method in brief: as §1
# catchweed [30] = experiment: Test Example 3: weedkilling efficacy through soil treatment; O: catchweed
# Method in brief: as §1
# redroot pigweed [31] = experiment: Test Example 4: weedkilling efficacy by foliar treatment; L: redroot pigweed
# Method in brief: as §3
# bulrush [32] = experiment: Test Example 2: weedkilling efficacy, growth period weed treatment in the submerged state; B: bulrush
# Method in brief: as §4
# black-grass [33] = experiment: Test Example 3: weedkilling efficacy through soil treatment; H: black-grass
# Method in brief: as §1
# Indian mallow [34] = experiment: Test Example 3: weedkilling efficacy through soil treatment; K: Indian mallow
# Method in brief: as §1
# barnyard grass [35] = experiment: Test Example 4: weedkilling efficacy by foliar treatment; F: barnyard grass
# Method in brief: as §3
# oval-leafed pondweed [36] = experiment: Test Example 1: weedkilling efficacy, preemergent weed treatment in the submerged state; C: oval-leafed pondweed
# Method in brief: as §2
# soybean [37] = experiment: Test Example 4: foliar treatment, effect on crop; d: soybean
# Method in brief: as §3
# crabgrass [38] = experiment: Test Example 3: weedkilling efficacy through soil treatment; D: crabgrass
# Method in brief: as §1
# wild oat [39] = experiment: Test Example 4: weedkilling efficacy by foliar treatment; G: wild oat
# Method in brief: as §3
# oval-leafed pondweed [40] = experiment: Test Example 2: weedkilling efficacy, growth period weed treatment in the submerged state; C: oval-leafed pondweed
# Method in brief: as §4
# rapeseed [41] = experiment: Test Example 3: soil treatment, effect on crop; g: rapeseed
# Method in brief: as §1
# corn [42] = experiment: Test Example 4: foliar treatment, effect on crop; c: corn
# Method in brief: as §3
structure (smiles),measurement,setting,value
CCOc1cc(C(F)(F)F)cc(NC(=O)C(C)(C)N2COC(C)=C(c3ccccc3)C2=O)n1 [B-2-50],c (corn) effect on crop grade,corn [1],"1 (weed kill ratio 5% or more, less than 20%)"
same,a (transplanted rice) effect on crop grade,transplanted rice,0 (weed kill ratio 5% or less (practically no effect))
same,N (chickweed) weedkilling efficacy grade,chickweed [2],0 (weed kill ratio 5% or less (practically no effect))
same,g (rapeseed) effect on crop grade,rapeseed [3],0 (weed kill ratio 5% or less (practically no effect))
same,b (directly sown rice) effect on crop grade,directly sown rice [4],0 (weed kill ratio 5% or less (practically no effect))
same,B (bulrush) weedkilling efficacy grade,bulrush [5],"5 (weed kill ratio 90% or more, (practically complete withering))"
same,e (wheat) effect on crop grade,wheat [6],0 (weed kill ratio 5% or less (practically no effect))
same,O (catchweed) weedkilling efficacy grade,catchweed [7],0 (weed kill ratio 5% or less (practically no effect))
same,G (wild oat) weedkilling efficacy grade,wild oat [8],0 (weed kill ratio 5% or less (practically no effect))
same,M (fig-leafed goosefoot) weedkilling efficacy grade,fig-leafed goosefoot,"3 (weed kill ratio 40% or more, less than 70%)"
same,E (green foxtail) weedkilling efficacy grade,green foxtail [9],"5 (weed kill ratio 90% or more, (practically complete withering))"
same,P (birds-eye speedwell) weedkilling efficacy grade,birds-eye speedwell [10],0 (weed kill ratio 5% or less (practically no effect))
same,D (crabgrass) weedkilling efficacy grade,crabgrass [11],"2 (weed kill ratio 20% or more, less than 40%)"
same,I (Italian ryegrass) weedkilling efficacy grade,Italian ryegrass [12],"1 (weed kill ratio 5% or more, less than 20%)"
same,H (black-grass) weedkilling efficacy grade,black-grass [13],"1 (weed kill ratio 5% or more, less than 20%)"
same,J (common wind-grass) weedkilling efficacy grade,common wind-grass [14],"1 (weed kill ratio 5% or more, less than 20%)"
same,F (barnyard grass) weedkilling efficacy grade,barnyard grass [15],"4 (weed kill ratio 70% or more, less than 90%)"
same,N (chickweed) weedkilling efficacy grade,chickweed [16],0 (weed kill ratio 5% or less (practically no effect))
same,J (common wind-grass) weedkilling efficacy grade,common wind-grass [17],"5 (weed kill ratio 90% or more, (practically complete withering))"
same,d (soybean) effect on crop grade,soybean [18],0 (weed kill ratio 5% or less (practically no effect))
same,E (green foxtail) weedkilling efficacy grade,green foxtail [19],"2 (weed kill ratio 20% or more, less than 40%)"
same,e (wheat) effect on crop grade,wheat [20],0 (weed kill ratio 5% or less (practically no effect))
same,P (birds-eye speedwell) weedkilling efficacy grade,birds-eye speedwell [21],0 (weed kill ratio 5% or less (practically no effect))
same,A (barnyard grass) weedkilling efficacy grade,barnyard grass [22],"5 (weed kill ratio 90% or more, (practically complete withering))"
same,A (barnyard grass) weedkilling efficacy grade,barnyard grass [23],"5 (weed kill ratio 90% or more, (practically complete withering))"
same,f (beet) effect on crop grade,beet [24],0 (weed kill ratio 5% or less (practically no effect))
same,b (directly sown rice) effect on crop grade,directly sown rice [25],"1 (weed kill ratio 5% or more, less than 20%)"
same,L (redroot pigweed) weedkilling efficacy grade,redroot pigweed [26],"2 (weed kill ratio 20% or more, less than 40%)"
same,K (Indian mallow) weedkilling efficacy grade,Indian mallow [27],"1 (weed kill ratio 5% or more, less than 20%)"
same,I (Italian ryegrass) weedkilling efficacy grade,Italian ryegrass [28],"3 (weed kill ratio 40% or more, less than 70%)"
same,f (beet) effect on crop grade,beet [29],0 (weed kill ratio 5% or less (practically no effect))
same,O (catchweed) weedkilling efficacy grade,catchweed [30],0 (weed kill ratio 5% or less (practically no effect))
same,L (redroot pigweed) weedkilling efficacy grade,redroot pigweed [31],0 (weed kill ratio 5% or less (practically no effect))
same,B (bulrush) weedkilling efficacy grade,bulrush [32],"4 (weed kill ratio 70% or more, less than 90%)"
same,H (black-grass) weedkilling efficacy grade,black-grass [33],"2 (weed kill ratio 20% or more, less than 40%)"
same,K (Indian mallow) weedkilling efficacy grade,Indian mallow [34],0 (weed kill ratio 5% or less (practically no effect))
same,F (barnyard grass) weedkilling efficacy grade,barnyard grass [35],0 (weed kill ratio 5% or less (practically no effect))
same,C (oval-leafed pondweed) weedkilling efficacy grade,oval-leafed pondweed [36],"5 (weed kill ratio 90% or more, (practically complete withering))"
same,d (soybean) effect on crop grade,soybean [37],0 (weed kill ratio 5% or less (practically no effect))
same,D (crabgrass) weedkilling efficacy grade,crabgrass [38],"5 (weed kill ratio 90% or more, (practically complete withering))"
same,G (wild oat) weedkilling efficacy grade,wild oat [39],0 (weed kill ratio 5% or less (practically no effect))
same,C (oval-leafed pondweed) weedkilling efficacy grade,oval-leafed pondweed [40],"4 (weed kill ratio 70% or more, less than 90%)"
same,g (rapeseed) effect on crop grade,rapeseed [41],0 (weed kill ratio 5% or less (practically no effect))
same,c (corn) effect on crop grade,corn [42],0 (weed kill ratio 5% or less (practically no effect))
